Experimental data taken from the supplement of paper PMC4862054.

Legend:
Conditions in all cases: incubation time: 72 h
[1] = tested on: BT-474; experiment: normalised response (% of control), CellTox Green; higher = less cell death (100 = DMSO, 0 = benzethonium chloride kill control)
Method in brief: (§1)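 Plates were normalised with 0.1 % DMSO as 100 and a positive kill control as 0. Breast cancer cell lines in 20 µl suspension had been seeded into 384-well plates with compound at 5 concentrations in 10-fold steps over a compound-specific 10,000-fold range, incubated 72 h, and read for CellTox Green fluorescence (485/520 nm) followed by CellTiter-Glo luminescence. Each value is the normalised signal at a single concentration.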

[2] = tested on: BT-549; experiment: as above
Method in brief: as §1

[3] = tested on: CAL-120; experiment: as above
Method in brief: as §1

[4] = tested on: CAL-148; experiment: as above
Method in brief: as §1

[5] = tested on: CAL-51; experiment: as above
Method in brief: as §1

[6] = tested on: CAL-85-1; experiment: as above
Method in brief: as §1

[7] = tested on: DU-4475; experiment: as above
Method in brief: as §1

[8] = tested on: HCC1143; experiment: as above
Method in brief: as §1

[9] = tested on: HCC1599; experiment: as above
Method in brief: as §1

[10] = tested on: HCC1937; experiment: as above
Method in brief: as §1

[11] = tested on: HDQ-P1; experiment: as above
Method in brief: as §1

[12] = tested on: Hs578T; experiment: as above
Method in brief: as §1

[13] = tested on: MCF-10A; experiment: as above
Method in brief: as §1

[14] = tested on: MDA-MB-231; experiment: as above
Method in brief: as §1

[15] = tested on: MDA-MB-436; experiment: as above
Method in brief: as §1

[16] = tested on: MDA-MB-453; experiment: as above
Method in brief: as §1

[17] = tested on: MDA-MB-468; experiment: as above
Method in brief: as §1

[18] = tested on: MFM-223; experiment: as above
Method in brief: as §1

[19] = tested on: BT-474; experiment: normalised response (% of control), CellTiter-Glo; higher = more viable cells (100 = DMSO, 0 = benzethonium chloride kill control)
Method in brief: as §1

[20] = tested on: BT-549; experiment: as above
Method in brief: as §1

[21] = tested on: CAL-120; experiment: as above
Method in brief: as §1

[22] = tested on: CAL-148; experiment: as above
Method in brief: as §1

[23] = tested on: CAL-51; experiment: as above
Method in brief: as §1

[24] = tested on: CAL-85-1; experiment: as above
Method in brief: as §1

[25] = tested on: DU-4475; experiment: as above
Method in brief: as §1

[26] = tested on: HCC1143; experiment: as above
Method in brief: as §1

[27] = tested on: HCC1599; experiment: as above
Method in brief: as §1

[28] = tested on: HCC1937; experiment: as above
Method in brief: as §1

[29] = tested on: HDQ-P1; experiment: as above
Method in brief: as §1

[30] = tested on: Hs578T; experiment: as above
Method in brief: as §1

[31] = tested on: MCF-10A; experiment: as above
Method in brief: as §1

[32] = tested on: MDA-MB-231; experiment: as above
Method in brief: as §1

[33] = tested on: MDA-MB-436; experiment: as above
Method in brief: as §1

[34] = tested on: MDA-MB-453; experiment: as above
Method in brief: as §1

[35] = tested on: MDA-MB-468; experiment: as above
Method in brief: as §1

[36] = tested on: MFM-223; experiment: as above
Method in brief: as §1

[37] = tested on: SK-BR-3; experiment: as above
Method in brief: as §1

CCCC(CCC)C(=O)O [Valproic acid] (100000 nM)
normalised response [1]: 98.1% | normalised response [2]: 95.3% | normalised response [3]: 107% | normalised response [4]: 85.4% | normalised response [5]: 53.4% | normalised response [6]: 107% | normalised response [7]: 105% | normalised response [8]: 110% | normalised response [9]: 101% | normalised response [10]: 86.4% | normalised response [11]: 75.3% | normalised response [12]: 63.5% | normalised response [13]: 53% | normalised response [14]: 102% | normalised response [15]: 109% | normalised response [16]: 111% | normalised response [17]: 123% | normalised response [18]: 99.4% | normalised response [19]: 98.6% | normalised response [20]: 103% | normalised response [21]: 96.1% | normalised response [22]: 91.4% | normalised response [23]: 83.5% | normalised response [24]: 101% | normalised response [25]: 94% | normalised response [26]: 101% | normalised response [27]: 94.1% | normalised response [28]: 103% | normalised response [29]: 101% | normalised response [30]: 104% | normalised response [31]: 101% | normalised response [32]: 98.7% | normalised response [33]: 101% | normalised response [34]: 91.1% | normalised response [35]: 97.8% | normalised response [36]: 99.2% | normalised response [37]: 101%

CN(c1ccccc1CNc1nc(Nc2ccc3c(c2)CC(=O)N3)ncc1C(F)(F)F)S(C)(=O)=O (1000 nM)
normalised response [1]: 101% | normalised response [2]: 116% | normalised response [3]: 99.7% | normalised response [4]: 96.8% | normalised response [5]: 15.1% | normalised response [6]: 99.4% | normalised response [7]: 97.4% | normalised response [8]: 71.2% | normalised response [9]: 97.1% | normalised response [10]: 111% | normalised response [12]: 65.3% | normalised response [13]: 101% | normalised response [14]: 83.4% | normalised response [15]: 104% | normalised response [16]: 106% | normalised response [17]: 150% | normalised response [19]: 73.2% | normalised response [20]: 93.5% | normalised response [21]: 81% | normalised response [22]: 91.1% | normalised response [23]: 53.6% | normalised response [24]: 87.2% | normalised response [25]: 84.8% | normalised response [26]: 87.8% | normalised response [27]: 107% | normalised response [28]: 94.5% | normalised response [29]: 84.5% | normalised response [30]: 89.1% | normalised response [31]: 63.5% | normalised response [32]: 76.4% | normalised response [33]: 101% | normalised response [34]: 128% | normalised response [35]: 69% | normalised response [36]: 92.3% | normalised response [37]: 79.7%

Nc1nccc(-c2c(-c3ccc(F)cc3)ncn2C2CCCCC2)n1 (1000 nM)
normalised response [1]: 102% | normalised response [2]: 109% | normalised response [3]: 107% | normalised response [4]: 98.4% | normalised response [5]: 86.2% | normalised response [6]: 104% | normalised response [7]: 107% | normalised response [8]: 120% | normalised response [9]: 100% | normalised response [10]: 91.5% | normalised response [11]: 103% | normalised response [13]: 109% | normalised response [14]: 84% | normalised response [15]: 81.5% | normalised response [16]: 107% | normalised response [17]: 67.2% | normalised response [19]: 98.9% | normalised response [20]: 101% | normalised response [21]: 108% | normalised response [22]: 97.5% | normalised response [23]: 97% | normalised response [24]: 96.7% | normalised response [25]: 103% | normalised response [26]: 101% | normalised response [27]: 104% | normalised response [28]: 97.3% | normalised response [29]: 106% | normalised response [30]: 104% | normalised response [31]: 103% | normalised response [32]: 98.7% | normalised response [33]: 103% | normalised response [34]: 96.6% | normalised response [35]: 68.9% | normalised response [36]: 105% | normalised response [37]: 95.4%

COC(=O)C[C@](O)(CCCC(C)(C)O)C(=O)O[C@@H]1C(OC)=C[C@]23CCCN2CCc2cc4c(cc2[C@H]13)OCO4 [Omacetaxine] (1000 nM)
normalised response [1]: 93.7% | normalised response [2]: 52.6% | normalised response [3]: 91.4% | normalised response [4]: 93.1% | normalised response [5]: 111% | normalised response [6]: 4.24% | normalised response [7]: 97.7% | normalised response [8]: 108% | normalised response [9]: 85.7% | normalised response [10]: 24.1% | normalised response [11]: 74.8% | normalised response [12]: 60.2% | normalised response [13]: 33.5% | normalised response [14]: 66.4% | normalised response [15]: 104% | normalised response [16]: 115% | normalised response [17]: 67.1% | normalised response [18]: 36% | normalised response [19]: 26.4% | normalised response [20]: 7.92% | normalised response [21]: 26.9% | normalised response [22]: 32% | normalised response [23]: 10.1% | normalised response [24]: 0.88% | normalised response [25]: 25% | normalised response [26]: 14.5% | normalised response [27]: 8.63% | normalised response [28]: 25.8% | normalised response [29]: 23.1% | normalised response [30]: 2% | normalised response [31]: 11.3% | normalised response [32]: 9.47% | normalised response [33]: 17.2% | normalised response [34]: 48.8% | normalised response [35]: 4.18% | normalised response [36]: 14.4% | normalised response [37]: 12.6%

COc1cc(Nc2ncc(F)c(Nc3ccc4c(n3)NC(=O)C(C)(C)O4)n2)cc(OC)c1OC [Tamatinib] (1000 nM)
normalised response [1]: 99.7% | normalised response [2]: 90.7% | normalised response [3]: 105% | normalised response [4]: 102% | normalised response [5]: 89.9% | normalised response [6]: 103% | normalised response [7]: 100% | normalised response [8]: 119% | normalised response [9]: 103% | normalised response [11]: 105% | normalised response [12]: 108% | normalised response [13]: 105% | normalised response [14]: 107% | normalised response [15]: 94.2% | normalised response [16]: 103% | normalised response [18]: 103% | normalised response [19]: 96.6% | normalised response [20]: 77.5% | normalised response [21]: 97.2% | normalised response [22]: 95.6% | normalised response [23]: 92.1% | normalised response [24]: 95.1% | normalised response [25]: 103% | normalised response [26]: 104% | normalised response [27]: 106% | normalised response [28]: 102% | normalised response [29]: 98.4% | normalised response [30]: 101% | normalised response [31]: 104% | normalised response [32]: 101% | normalised response [33]: 104% | normalised response [34]: 105% | normalised response [35]: 88.7% | normalised response [36]: 104% | normalised response [37]: 104%
